Data as given in patent publication US20080234262A1 (Wyeth, priority 2007, published 2008).

biological target: PI3K (Homo sapiens, UniProt P42336); test: Fluorescence polarization assay for PI3K; type: biochemical; conditions: PI3Kα; read-out: PI3Kα IC50;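 further: PI3K kinase reaction on PIP2 with ATP, 30-60 min, product sensed by GST-GRP with red probe in fluorescence polarization (mP), controls without enzyme and at zero time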
Sequence (P42336 whole entry): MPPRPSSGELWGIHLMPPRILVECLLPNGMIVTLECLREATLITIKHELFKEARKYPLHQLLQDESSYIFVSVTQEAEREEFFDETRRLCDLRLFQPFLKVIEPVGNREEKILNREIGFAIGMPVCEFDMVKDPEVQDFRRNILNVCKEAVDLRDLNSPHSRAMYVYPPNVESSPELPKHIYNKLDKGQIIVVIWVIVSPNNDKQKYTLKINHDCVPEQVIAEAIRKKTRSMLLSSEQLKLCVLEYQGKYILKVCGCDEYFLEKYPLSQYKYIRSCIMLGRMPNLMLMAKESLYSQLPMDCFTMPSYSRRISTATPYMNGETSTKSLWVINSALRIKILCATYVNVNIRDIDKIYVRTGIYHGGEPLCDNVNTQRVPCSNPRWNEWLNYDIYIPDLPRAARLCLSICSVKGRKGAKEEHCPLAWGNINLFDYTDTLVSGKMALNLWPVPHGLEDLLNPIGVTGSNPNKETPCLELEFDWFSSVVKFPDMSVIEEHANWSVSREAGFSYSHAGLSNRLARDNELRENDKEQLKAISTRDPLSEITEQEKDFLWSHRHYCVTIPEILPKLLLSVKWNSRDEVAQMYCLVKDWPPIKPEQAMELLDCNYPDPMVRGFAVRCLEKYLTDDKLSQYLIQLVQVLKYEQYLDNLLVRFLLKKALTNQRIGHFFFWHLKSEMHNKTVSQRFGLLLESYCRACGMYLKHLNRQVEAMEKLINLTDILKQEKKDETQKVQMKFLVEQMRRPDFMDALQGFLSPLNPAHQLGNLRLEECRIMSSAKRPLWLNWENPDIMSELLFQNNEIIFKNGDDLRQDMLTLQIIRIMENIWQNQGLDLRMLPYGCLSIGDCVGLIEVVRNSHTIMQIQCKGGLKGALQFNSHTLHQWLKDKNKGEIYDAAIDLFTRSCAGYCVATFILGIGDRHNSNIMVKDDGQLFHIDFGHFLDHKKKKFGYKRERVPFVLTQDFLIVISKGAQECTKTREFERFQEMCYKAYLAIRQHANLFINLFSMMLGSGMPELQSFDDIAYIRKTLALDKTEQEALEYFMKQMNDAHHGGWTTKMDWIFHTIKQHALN
Sequence (P27986 whole entry partner): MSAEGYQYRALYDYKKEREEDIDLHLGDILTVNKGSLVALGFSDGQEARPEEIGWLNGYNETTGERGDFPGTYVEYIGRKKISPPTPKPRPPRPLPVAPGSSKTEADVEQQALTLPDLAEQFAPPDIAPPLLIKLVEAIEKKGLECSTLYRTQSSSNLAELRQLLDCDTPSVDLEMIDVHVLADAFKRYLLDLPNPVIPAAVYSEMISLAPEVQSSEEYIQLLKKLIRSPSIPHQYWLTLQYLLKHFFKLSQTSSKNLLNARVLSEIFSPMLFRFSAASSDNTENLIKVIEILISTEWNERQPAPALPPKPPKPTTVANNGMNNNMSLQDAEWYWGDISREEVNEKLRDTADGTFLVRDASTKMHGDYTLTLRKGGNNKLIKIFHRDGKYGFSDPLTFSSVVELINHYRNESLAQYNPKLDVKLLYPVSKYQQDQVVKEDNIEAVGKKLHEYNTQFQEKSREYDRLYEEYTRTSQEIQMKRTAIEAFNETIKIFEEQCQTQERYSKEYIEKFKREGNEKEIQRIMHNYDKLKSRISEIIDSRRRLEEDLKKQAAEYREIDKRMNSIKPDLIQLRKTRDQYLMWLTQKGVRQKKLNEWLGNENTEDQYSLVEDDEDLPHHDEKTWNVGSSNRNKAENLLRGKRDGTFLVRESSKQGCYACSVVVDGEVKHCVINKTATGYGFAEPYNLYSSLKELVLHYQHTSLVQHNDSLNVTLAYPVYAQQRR

| SMILES | IC50 [nM] |
| --- | --- |
| Cn1ncc2c(N3CCOCC3)nc(-c3cccnc3)nc21 [Compound 1] | 813 |
| Cn1ncc2c(N3CCOCC3)nc(-c3ccoc3)nc21 [Compound 3] | 915 |
| CN(C)CCC(=O)Nc1ccc(-c2nc(N3CCOCC3)c3cnn(-c4ccccc4)c3n2)cc1 [Compound 133] | 223 |
| CC(=O)Nc1ccc(-c2nc(N3CCOCC3)c3cnn(C4CCCCO4)c3n2)cc1 (stereo not drawn) [Compound 224, N-{4-[4-morpholin-4-yl-1-(tetrahydro-2H-pyran-2-yl)-1H-pyrazolo[3,4-d]pyrimidin-6-yl]phenyl}acetamide] | 1650 |
| COC(=O)Nc1cccc(-c2nc(N3CCOCC3)c3cnn(C4CCN(Cc5ccccc5)CC4)c3n2)c1 [Compound 227, methyl {3-[1-(1-benzylpiperidin-4-yl)-4-morpholin-4-yl-1H-pyrazolo[3,4-d]pyrimidin-6-yl]phenyl}carbamate] | 9020 |
| NC(=O)Nc1cccc(-c2nc(N3CCOCC3)c3cnn(C4CCN(Cc5ccccc5)CC4)c3n2)c1 [Compound 229, N-{3-[1-(1-benzylpiperidin-4-yl)-4-morpholin-4-yl-1H-pyrazolo[3,4-d]pyrimidin-6-yl]phenyl}urea] | 2170 |
| COCOc1cncc(-c2nc(N3CCOCC3)c3cnn(C4CCN(Cc5ccccc5)CC4)c3n2)c1 [Compound 249, 1-(1-benzylpiperidin-4-yl)-6-[5-(methoxymethoxy)pyridin-3-yl]-4-morpholin-4-yl-1H-pyrazolo[3,4-d]pyrimidine] | 2000 |
| Oc1cncc(-c2nc(N3CCOCC3)c3cnn(C4CCN(Cc5ccccc5)CC4)c3n2)c1 [Compound 250, 5-[1-(1-benzylpiperidin-4-yl)-4-morpholin-4-yl-1H-pyrazolo[3,4-d]pyrimidin-6-yl]pyridin-3-ol] | 37 |
| CCCOC(=O)Nc1ccc(-c2nc(N3CCOCC3)c3cnn(C4CCN(Cc5ccccc5)CC4)c3n2)cc1 [Compound 255, propyl {4-[1-(1-benzylpiperidin-4-yl)-4-morpholin-4-yl-1H-pyrazolo[3,4-d]pyrimidin-6-yl]phenyl}carbamate] | 4110 |
| O=C(NCc1ccccc1)Nc1ccc(-c2nc(N3CCOCC3)c3cnn(C4CCN(Cc5ccccc5)CC4)c3n2)cc1 [Compound 258, 1-benzyl-3-{4-[1-(1-benzylpiperidin-4-yl)-4-morpholin-4-yl-1H-pyrazolo[3,4-d]pyrimidin-6-yl]phenyl}urea] | 533 |
| Nc1ccc(-c2nc(N3CCOCC3)c3cnn(C4CCCCO4)c3n2)cc1 (stereo not drawn) [Compound 264, 4-[4-morpholin-4-yl-1-(tetrahydro-2H-pyran-2-yl)-1H-pyrazolo[3,4-d]pyrimidin-6-yl]aniline] | 119 |
| COC(=O)Nc1ccc(-c2nc(N3CCOCC3)c3cnn(C4CCCCO4)c3n2)cc1 (stereo not drawn) [Compound 274, methyl {4-[4-morpholin-4-yl-1-(tetrahydro-2H-pyran-2-yl)-1H-pyrazolo[3,4-d]pyrimidin-6-yl]phenyl}carbamate] | 2550 |
| COc1cccc(C(=O)Nc2ccc(-c3nc(N4CCOCC4)c4cn[nH]c4n3)cc2)c1 [Compound 277, 3-methoxy-N-[4-(4-morpholin-4-yl-1H-pyrazolo[3,4-d]pyrimidin-6-yl)phenyl]benzamide] | 440 |
| O=C(Nc1ccc(-c2nc(N3CCOCC3)c3cnn(C4CCN(Cc5ccccc5)CC4)c3n2)cc1)C(F)(F)F [Compound 299, N-{4-[1-(1-benzylpiperidin-4-yl)-4-morpholin-4-yl-1H-pyrazolo[3,4-d]pyrimidin-6-yl]phenyl}-2,2,2-trifluoroacetamide] | 1900 |
| O=C(O)Cc1ccc(-c2nc(N3CCOCC3)c3cnn(C4CCN(Cc5ccccc5)CC4)c3n2)cc1 [Compound 353, {4-[1-(1-benzylpiperidin-4-yl)-4-morpholin-4-yl-1H-pyrazolo[3,4-d]pyrimidin-6-yl]phenyl}acetic acid] | 1260 |
| c1ccc(CN2CCC(n3ncc4c(N5CCOCC5)nc(-c5ccc6ncccc6c5)nc43)CC2)cc1 [Compound 369, 6-[1-(1-benzylpiperidin-4-yl)-4-morpholin-4-yl-1H-pyrazolo[3,4-d]pyrimidin-6-yl]quinoline] | 466 |
| NC(=O)Cc1ccc(-c2nc(N3CCOCC3)c3cnn(C4CCN(Cc5ccccc5)CC4)c3n2)cc1 [Compound 370, 2-{4-[1-(1-benzylpiperidin-4-yl)-4-morpholin-4-yl-1H-pyrazolo[3,4-d]pyrimidin-6-yl]phenyl}acetamide] | 3130 |
| O=C(NCc1ccco1)Nc1ccc(-c2nc(N3CCOCC3)c3cnn(C4CCN(Cc5cccnc5)CC4)c3n2)cc1 [Compound 376, 1-(2-furylmethyl)-3-(4-{4-morpholin-4-yl-1-[1-(pyridin-3-ylmethyl)piperidin-4-yl]-1H-pyrazolo[3,4-d]pyrimidin-6-yl}phenyl)urea] | 359 |
| NCCC(=O)Nc1ccc(-c2nc(N3CCOCC3)c3cn[nH]c3n2)cc1 [Compound 529, N-[4-(4-morpholin-4-yl-1H-pyrazolo[3,4-d]pyrimidin-6-yl)phenyl]-b-alaninamide] | 202 |
| Nc1ccc(-c2nc(N3CCOCC3)c3cn[nH]c3n2)cc1 [Compound 531, 4-(4-morpholin-4-yl-1H-pyrazolo[3,4-d]pyrimidin-6-yl)aniline] | 1610 |

The next lines start with the values.

| IC50 [nM] | SMILES |
| --- | --- |
| 1490 | c1cncc(CN2CCC(n3ncc4c(N5CCOCC5)nc(-c5ccc6c(c5)CCN6)nc43)CC2)c1 [Compound 416, 6-(2,3-dihydro-1H-indol-5-yl)-4-morpholin-4-yl-1-[1-(pyridin-3-ylmethyl)piperidin-4-yl]-1H-pyrazolo[3,4-d]pyrimidine] |
| 3620 | Nc1cc(F)c(-c2nc(N3CCOCC3)c3cnn(C4CCN(C(=O)c5cccnc5)CC4)c3n2)cc1F [Compound 464, 2,5-difluoro-4-{4-morpholin-4-yl-1-[1-(pyridin-3-ylcarbonyl)piperidin-4-yl]-1H-pyrazolo[3,4-d]pyrimidin-6-yl}aniline] |
| 9500 | C[C@@H]1CN(c2nc(-c3cccc(O)c3)nc3c2cnn3-c2ccccc2)C[C@H](C)O1 [Compound 478, 3-{4-[(2R,6S)-2,6-dimethylmorpholin-4-yl]-1-phenyl-1H-pyrazolo[3,4-d]pyrimidin-6-yl}phenol] |
| 138 | CCNC(=O)Nc1ccc(-c2nc(N3CCOCC3)c3cnn(C4CCN(Cc5cccnc5)CC4)c3n2)cn1 [Compound 479, 1-ethyl-3-(5-{4-morpholin-4-yl-1-[1-(pyridin-3-ylmethyl)piperidin-4-yl]-1H-pyrazolo[3,4-d]pyrimidin-6-yl}pyridin-2-yl)urea] |
| 50 | CNC(=O)Nc1ccc(-c2nc(N3CCOCC3)c3cnn(-c4ccccc4)c3n2)cc1 [Compound 543, 1-methyl-3-[4-(4-morpholin-4-yl-1-phenyl-1H-pyrazolo[3,4-d]pyrimidin-6-yl)phenyl]urea] |
| 1580 | CCOC(=O)Nc1ccc(-c2nc(N3CCOCC3)c3cnn(C4CCN(C(=O)c5ccccc5)CC4)c3n2)cc1 [Compound 628, ethyl {4-[1-(1-benzoylpiperidin-4-yl)-4-morpholin-4-yl-1H-pyrazolo[3,4-d]pyrimidin-6-yl]phenyl}carbamate] |
| 229 | O=C(NCCO)Nc1ccc(-c2nc(N3CCOCC3)c3cnn(C4CCN(C(=O)c5ccccc5)CC4)c3n2)cc1 [Compound 630, 1-{4-[1-(1-benzoylpiperidin-4-yl)-4-morpholin-4-yl-1H-pyrazolo[3,4-d]pyrimidin-6-yl]phenyl}-3-(2-hydroxyethyl)urea] |
| 48 | CNCCNC(=O)Nc1ccc(-c2nc(N3CCOCC3)c3cnn(C4CCN(C(=O)c5ccccc5)CC4)c3n2)cc1 [Compound 631, 1-{4-[1-(1-benzoylpiperidin-4-yl)-4-morpholin-4-yl-1H-pyrazolo[3,4-d]pyrimidin-6-yl]phenyl}-3-[2-(methylamino)ethyl]urea] |
| 18 | CNC(=O)Nc1ccc(-c2nc(N3CCOCC3)c3cnn(C4CCN(Cc5ccc(Cl)cc5)CC4)c3n2)cc1 [Compound 639, 1-(4-{1-[1-(4-chlorobenzyl)piperidin-4-yl]-4-morpholin-4-yl-1H-pyrazolo[3,4-d]pyrimidin-6-yl}phenyl)-3-methylurea] |
| 42 | CNC(=O)Nc1ccc(-c2nc(N3CCOCC3)c3cnn(C4CCN(Cc5cccc(Cl)c5)CC4)c3n2)cc1 [Compound 640, 1-(4-{1-[1-(3-chlorobenzyl)piperidin-4-yl]-4-morpholin-4-yl-1H-pyrazolo[3,4-d]pyrimidin-6-yl}phenyl)-3-methylurea] |
| 57 | CNC(=O)Nc1ccc(-c2nc(N3CCOCC3)c3cnn(C4CCN(Cc5ccc(OC)c(O)c5)CC4)c3n2)cc1 [Compound 643, 1-(4-{1-[1-(3-hydroxy-4-methoxybenzyl)piperidin-4-yl]-4-morpholin-4-yl-1H-pyrazolo[3,4-d]pyrimidin-6-yl}phenyl)-3-methylurea] |
| 43 | CNC(=O)Nc1ccc(-c2nc(N3CCOCC3)c3cnn(C4CCN(Cc5cccc(OC)c5)CC4)c3n2)cc1 [Compound 645, 1-(4-{1-[1-(3-methoxybenzyl)piperidin-4-yl]-4-morpholin-4-yl-1H-pyrazolo[3,4-d]pyrimidin-6-yl}phenyl)-3-methylurea] |
| 211 | CNC(=O)Nc1ccc(-c2nc(N3CCOCC3)c3cnn(C4CCN(C)CC4)c3n2)cc1 [Compound 646, 1-methyl-3-{4-[1-(1-methylpiperidin-4-yl)-4-morpholin-4-yl-1H-pyrazolo[3,4-d]pyrimidin-6-yl]phenyl}urea] |
| 63 | CNC(=O)Nc1ccc(-c2nc(N3CCOCC3)c3cnn(C4CCN(Cc5ccco5)CC4)c3n2)cc1 [Compound 647, 1-(4-{1-[1-(2-furylmethyl)piperidin-4-yl]-4-morpholin-4-yl-1H-pyrazolo[3,4-d]pyrimidin-6-yl}phenyl)-3-methylurea] |
| 774 | CNC(=NC#N)Nc1ccc(-c2nc(N3CCOCC3)c3cnn(C4CCN(Cc5cccnc5)CC4)c3n2)cc1 [Compound 651, 2-cyano-1-methyl-3-(4-{4-morpholin-4-yl-1-[1-(pyridin-3-ylmethyl)piperidin-4-yl]-1H-pyrazolo[3,4-d]pyrimidin-6-yl}phenyl)guanidine] |
| 916 | CCNC(=NC#N)Nc1ccc(-c2nc(N3CCOCC3)c3cnn(C4CCN(Cc5cccnc5)CC4)c3n2)cc1 [Compound 652, 2-cyano-1-ethyl-3-(4-{4-morpholin-4-yl-1-[1-(pyridin-3-ylmethyl)piperidin-4-yl]-1H-pyrazolo[3,4-d]pyrimidin-6-yl}phenyl)guanidine] |
